Test results as given in US9023789B2, “Amylin analogs and pharmaceutical compositions thereof” (Novo Nordisk A/S, priority 2012, dated 2015).
Values after ≈ are worked out from the molar mass of the structure shown. Where two headings read alike, the source gives them in different places. Numbered stars: 1 amine (or outer) side, 2 acyl side, 3 side chain; on linkers, the order of the positions; unused ones are H or OH. Bridge positions count the residues as written; N and C are the ends. Side chains are listed from the residue outwards. Peptide text beside a SMILES is read from it. * marks the point of attachment. C20 diacid = O=C(O)CCCCCCCCCCCCCCCCCCC(=O)*; γGlu = O=C(O)[C@H](CCC(=O)[*:2])N[*:1]; AEEA = NCCOCCOCC(=O)O

Experiments:
rat calcitonin receptor = target: T1, rat calcitonin receptor (Rattus norvegicus, UniProt P32214); test: ASSAY (VIII) binding to the rat calcitonin receptor; settings: Table 7, read-out: rCTR bind IC50
T1 construct: expressed in transfected cells; host or cells: BHK tk'ts 13 (transient, FuGENE 6), membranes
T1 sequence (P32214 25-479 isoform P32214-2 limits assumed): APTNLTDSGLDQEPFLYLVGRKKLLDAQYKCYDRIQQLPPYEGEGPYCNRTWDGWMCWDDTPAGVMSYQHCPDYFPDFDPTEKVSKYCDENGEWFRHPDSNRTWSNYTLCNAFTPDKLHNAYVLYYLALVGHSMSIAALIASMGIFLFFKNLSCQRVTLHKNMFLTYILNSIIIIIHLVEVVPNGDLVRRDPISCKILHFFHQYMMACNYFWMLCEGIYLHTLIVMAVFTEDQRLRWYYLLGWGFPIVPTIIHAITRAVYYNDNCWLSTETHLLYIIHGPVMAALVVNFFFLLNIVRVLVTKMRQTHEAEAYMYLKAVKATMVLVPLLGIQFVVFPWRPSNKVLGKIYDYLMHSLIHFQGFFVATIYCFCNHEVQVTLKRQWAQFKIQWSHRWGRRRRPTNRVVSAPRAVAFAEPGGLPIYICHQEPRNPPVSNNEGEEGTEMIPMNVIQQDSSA
Method in brief: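 Membranes were prepared from BHK tk′ts 13 cells transiently transfected with rat calcitonin receptor. Cells were grown in DMEM with 10% FBS and harvested approximately 48 hours after transfection.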

[1] = target: T2, human amylin receptor (membranes from Amylin 3(a)/CRE-luc cells) (Homo sapiens, UniProt O60896+P30988); test: ASSAY (V) binding to the human amylin receptor (SPA, 125I-rat amylin);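 also: competition binding of cell membranes (35 ng/µL) mixed with SPA beads in 384-well plates at 40 µL total volume, read by scintillation counting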
T2 construct: expressed in transfected cells
T2 sequence (P30988 25-474): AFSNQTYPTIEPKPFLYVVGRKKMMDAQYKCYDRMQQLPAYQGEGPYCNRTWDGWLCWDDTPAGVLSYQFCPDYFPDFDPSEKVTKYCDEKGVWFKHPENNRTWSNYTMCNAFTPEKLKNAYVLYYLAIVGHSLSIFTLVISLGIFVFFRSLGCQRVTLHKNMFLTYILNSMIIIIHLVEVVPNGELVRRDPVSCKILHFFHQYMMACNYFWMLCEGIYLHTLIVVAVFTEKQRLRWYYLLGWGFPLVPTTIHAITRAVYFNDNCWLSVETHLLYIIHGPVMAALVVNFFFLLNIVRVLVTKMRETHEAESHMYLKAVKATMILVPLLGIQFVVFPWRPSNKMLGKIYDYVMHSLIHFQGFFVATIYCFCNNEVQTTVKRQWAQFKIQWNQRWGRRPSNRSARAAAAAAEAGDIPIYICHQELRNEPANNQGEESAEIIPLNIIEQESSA
T2 sequence (O60896 24-148 partner): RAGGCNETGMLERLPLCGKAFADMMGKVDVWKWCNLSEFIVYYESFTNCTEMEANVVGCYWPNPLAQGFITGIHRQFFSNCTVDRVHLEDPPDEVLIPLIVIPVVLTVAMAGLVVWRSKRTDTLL

[2] = target: T3, rat amylin receptor (rat calcitonin receptor + rat RAMP 3) (Rattus norvegicus, UniProt P32214+Q9JJ73); test: ASSAY (VI) binding to the rat amylin receptor; settings: for IC50: binding to rat amylin receptor, read-out: rAmylin-R bind IC50
T3 construct: expressed in transfected cells; host or cells: BHK tk'ts 13 (transient, FuGENE 6), membranes
T3 sequence (P32214 25-479 isoform P32214-2 limits assumed): T1 sequence (P32214 25-479 isoform P32214-2 limits assumed)
T3 sequence (Q9JJ73 23-147 partner): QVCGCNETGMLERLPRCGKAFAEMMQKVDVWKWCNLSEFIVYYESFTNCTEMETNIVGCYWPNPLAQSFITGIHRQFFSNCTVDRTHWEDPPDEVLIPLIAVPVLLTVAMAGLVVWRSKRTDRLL
Method in brief: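 Binding to the rat amylin receptor was determined with membrane preparations. The receptor was expressed by transiently transfecting BHK tk′ts 13 cells with rat calcitonin receptor, using FuGENE® 6 (Roche) according to the manufacturer's recommendations. Roughly 48 hours later the cells were harvested and their membranes isolated.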

[3] = ASSAY (IV) determination of solubility; format: physicochemical
Method in brief: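 Polypeptide in water at […] mixed 1:1 with 100 mM buffers of pH 3.0-8.0 (glycylglycine pH 3-5, bistrispropane pH 6-8). Held 18 h at room temperature, then centrifuged; concentration remaining in solution measured by UPLC.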

[4] = Table 5, selectivity, hCTR bind IC50 / hAmylin-R bind IC50
[5] = Table 5a, selectivity, hCTR bind IC50 / hAmylin-R bind IC50
[6] = Table 5b, selectivity, hCTR bind IC50 / hAmylin-R bind IC50
[7] = Table 5c, selectivity, hCTR bind IC50 / hAmylin-R bind IC50
[8] = Table 7, human binding selectivity, included for comparison
[9] = Table 7a (preferred compounds), human binding selectivity, included for comparison
[10] = ratio of human calcitonin receptor binding IC50 to human amylin receptor binding IC50
[11] = Table 7, rat binding selectivity, rCTR IC50 / rAmylin-R IC50
[12] = Table 7a (preferred compounds), rat binding selectivity, rCTR IC50 / rAmylin-R IC50
[13] = ratio of rCTR bind IC50 to rAmylin-R bind IC50
[14] = bistrispropane buffer, pH 6.5, read-out: Solubility pH 6.5 Concentration
[15] = bistrispropane buffer, pH 7.5, read-out: Solubility pH 7.5 Concentration
[16] = bistrispropane buffer, pH 6.0, read-out: Solubility pH 6.0 Concentration
[17] = bistrispropane buffer, pH 7.0, read-out: Solubility pH 7.0 Concentration
[18] = bistrispropane buffer, pH 8.0, read-out: Solubility pH 8.0 Concentration
[19] = glycylglycine buffer, pH 3.0, read-out: Solubility pH 3.0 Concentration
[20] = glycylglycine buffer, pH 4.0, read-out: Solubility pH 4.0 Concentration
[21] = glycylglycine buffer, pH 5.0, read-out: Solubility pH 5.0 Concentration

Row | IC50 (rat calcitonin receptor) | Ratio hCT/hAmylin binding [1, 4] | Ratio hCT/hAmylin binding [1, 5] | Ratio hCT/hAmylin binding [1, 6] | Ratio hCT/hAmylin binding [1, 7] | Ratio hCT/hAmylin binding [1, 8] | Ratio hCT/hAmylin binding [1, 9] | Ratio hCT/hAmylin binding [1, 10] | IC50 ([2]; Table 7) | Ratio rCT/rAmylin binding [2, 11] | Ratio rCT/rAmylin binding [2, 12] | Ratio rCT/rAmylin binding [2, 13] | solubility at 18 h [3, 14] | solubility at 18 h [3, 15] | solubility at 18 h [3, 16] | solubility at 18 h [3, 17] | solubility at 18 h [3, 18] | solubility at 18 h [3, 19] | solubility at 18 h [3, 20] | solubility at 18 h [3, 21] | SMILES
1 | 196 nM | 46.5 | 46.5 | 46.5 | 46.5 | 46.5 | 46.5 | 46.5 | 2.31 nM | 84.9 | 84.9 | 84.9 | ≥ 200 µM | 113 µM (≈ 519 µg/mL) | ≥ 200 µM | 162 µM (≈ 744 µg/mL) | 108 µM (≈ 496 µg/mL) | ≥ 200 µM | ≥ 200 µM | ≥ 200 µM | CC[C@H](C)[C@H](NC(=O)[C@H](C)NC(=O)CNC(=O)[C@H](Cc1ccccc1)NC(=O)[C@H](CC(N)=O)NC(=O)[C@@H]1CCCN1C(=O)[C@H](CO)NC(=O)[C@H](CO)NC(=O)[C@H](Cc1c[nH]cn1)NC(=O)[C@H](CCCNC(=N)N)NC(=O)[C@H](CC(C)C)NC(=O)[C@H](Cc1ccccc1)NC(=O)[C@H](CCC(=O)O)NC(=O)[C@H](C)NC(=O)[C@H](CC(C)C)NC(=O)[C@H](CCCNC(=N)N)NC(=O)[C@H](CCC(N)=O)NC(=O)[C@@H](NC(=O)[C@H](C)NC(=O)[C@@H]1CSSC[C@H](NC(=O)[C@@H](N)CCCCNC(=O)CC[C@H](NC(=O)CC[C@H](NC(=O)CCCCCCCCCCCCCCCCCCC(=O)O)C(=O)O)C(=O)O)C(=O)N[C@@H](CC(N)=O)C(=O)N[C@@H]([C@@H](C)O)C(=O)N[C@@H](C)C(=O)N[C@@H]([C@@H](C)O)C(=O)N1)[C@@H](C)O)C(=O)N1CCC[C@H]1C(=O)N[C@@H](CO)C(=O)N[C@@H](CO)C(=O)N[C@H](C(=O)N[C@@H](CC(N)=O)C(=O)N[C@H](C(=O)NCC(=O)N[C@@H](CCCNC(=N)N)C(=O)N[C@@H](CC(N)=O)C(=O)N[C@H](C(=O)N[C@@H](Cc1ccc(O)cc1)C(N)=O)[C@@H](C)O)C(C)C)[C@@H](C)O [Example 88] (H-K([γGlu-γGlu-C20 diacid])CNTATCATQRLAEFLRHSSPNFGAIPSSTNVGRNTY-NH2; disulfide 2-7)
2 | 33.4 nM | 66.7 | 66.7 | 66.7 | 66.7 | 66.7 | 66.7 | 66.7 | 0.842 nM | 39.7 | 39.7 | 39.7 | ≥ 200 µM | ≥ 200 µM | ≥ 200 µM | ≥ 200 µM | 153 µM (≈ 693 µg/mL) | ≥ 200 µM | ≥ 200 µM | ≥ 200 µM | CC[C@H](C)[C@H](NC(=O)[C@H](C)NC(=O)CNC(=O)[C@H](Cc1ccccc1)NC(=O)[C@H](CC(N)=O)NC(=O)[C@@H]1CCCN1C(=O)[C@H](CO)NC(=O)[C@H](CO)NC(=O)[C@H](Cc1c[nH]cn1)NC(=O)[C@H](CCCNC(=N)N)NC(=O)[C@H](CC(C)C)NC(=O)[C@H](Cc1ccccc1)NC(=O)[C@H](Cc1c[nH]cn1)NC(=O)[C@H](C)NC(=O)[C@H](CC(C)C)NC(=O)[C@H](CCCNC(=N)N)NC(=O)[C@H](CCC(N)=O)NC(=O)[C@@H](NC(=O)[C@H](C)NC(=O)[C@@H]1CSSC[C@H](NC(=O)[C@@H](N)CCCCNC(=O)COCCOCCNC(=O)CC[C@H](NC(=O)CCCCCCCCCCCCCCCCCCC(=O)O)C(=O)O)C(=O)N[C@@H](CC(N)=O)C(=O)N[C@@H]([C@@H](C)O)C(=O)N[C@@H](C)C(=O)N[C@@H]([C@@H](C)O)C(=O)N1)[C@@H](C)O)C(=O)N1CCC[C@H]1C(=O)N[C@@H](CO)C(=O)N[C@@H](CO)C(=O)N[C@H](C(=O)N1CCC[C@H]1C(=O)N[C@H](C(=O)NCC(=O)N[C@@H](CO)C(=O)N[C@@H](CC(N)=O)C(=O)N[C@H](C(=O)N[C@@H](Cc1ccc(O)cc1)C(N)=O)[C@@H](C)O)C(C)C)[C@@H](C)O [Example 61] (H-K([AEEA-γGlu-C20 diacid])CNTATCATQRLAHFLRHSSPNFGAIPSSTPVGSNTY-NH2; disulfide 2-7 (inferred))
3 | 89.2 nM | 64.4 | 64.4 | 64.4 | 64.4 | 64.4 | 64.4 | 64.4 | 1.72 nM | 52.0 | 52.0 | 52.0 | ≥ 200 µM | ≥ 200 µM | ≥ 200 µM | ≥ 200 µM | ≥ 200 µM | ≥ 200 µM | ≥ 200 µM | ≥ 200 µM | CC[C@H](C)[C@H](NC(=O)[C@H](C)NC(=O)CNC(=O)[C@H](Cc1ccccc1)NC(=O)[C@H](CC(N)=O)NC(=O)[C@@H]1CCCN1C(=O)[C@H](CO)NC(=O)[C@H](CO)NC(=O)[C@H](Cc1c[nH]cn1)NC(=O)[C@H](CCCNC(=N)N)NC(=O)[C@H](CC(C)C)NC(=O)[C@H](Cc1ccccc1)NC(=O)[C@H](CC(N)=O)NC(=O)[C@H](C)NC(=O)[C@H](CC(C)C)NC(=O)[C@H](CCCNC(=N)N)NC(=O)[C@H](CCC(N)=O)NC(=O)[C@@H](NC(=O)[C@H](C)NC(=O)[C@@H]1CSSC[C@H](NC(=O)[C@H](CCCCN)NC(=O)CC[C@H](NC(=O)CCCCCCCCCCCCCCCCCCC(=O)O)C(=O)O)C(=O)N[C@@H](CC(N)=O)C(=O)N[C@@H]([C@@H](C)O)C(=O)N[C@@H](C)C(=O)N[C@@H]([C@@H](C)O)C(=O)N1)[C@@H](C)O)C(=O)N1CCC[C@H]1C(=O)N[C@@H](CO)C(=O)N[C@@H](CO)C(=O)N[C@H](C(=O)N[C@@H](CC(N)=O)C(=O)N[C@H](C(=O)NCC(=O)N[C@@H](CO)C(=O)N[C@@H](CCCCN)C(=O)N[C@H](C(=O)N[C@@H](Cc1ccc(O)cc1)C(N)=O)[C@@H](C)O)C(C)C)[C@@H](C)O [Example 34]
